Source: US7459282B2, “Use of c-Jun or c-Jun activating agents such as UV or c-Jun N-terminal kinases (JNKs) for treating cancer” (Biotech Research Ventures Pte Limited, priority 2001, dated 2008)
Square brackets hold non-standard residues; d marks the D form. Peptide text beside a SMILES is read from it. Nle = CCCC[C@H](N)C(=O)O

Legend:
[1] = tested on: p73; experiment: Western blot of p73 in MCF-7-p73 cells after proteosome inhibitor; assay type: cell-based, human; conditions: proteosome inhibitor for 3 hours
Method: FIG. 4. c-Jun is required for UV-mediated p73 stabilization. (a) MCF-7 cells stably transfected with p73 and parental MCF-7 cells were treated with the proteosome inhibitor for 3 hours or UV irradiated (50 J/m^2) and cell extracts were analyzed 2 hours post-irradiation by Western blotting as described in FIG. 1. (b) c-Jun^−/− and c-Jun^−/−+c-Jun mouse embryonic fibroblasts were transfected with the indicated plasmids and were untreated or UVC irradiated (40 J/m^2) or gamma-irradiation (10Gy) 24 hours post-transfection. 24 hours after irradiation, cell extracts were prepared and analyzed for p73 protein levels by Western blotting.
To analyze if c-Jun provides the stabilization signal, the inventors generated MCF-7 breast carcinoma cells stably expressing p73 (MCF-7-p73 cells), which would thus provide a detectable level of basal p73 expression. The overexpressed p73 was expressed in these cells (FIG. 4a). […] However, when these cells were treated with UV irradiation, which is a potent inducer of c-Jun but not p73 (Jost C A. et al, p73 is a simian [correction of human] p53-related protein that can induce apoptosis, Nature, 1997, Sep. 11; 389(6647):191-4.), p73 expression was detected as early as 2 hours post-irradiation, in contrast to the parental MCF-7 cells (FIG. 4a).

[2] = tested on: p73; experiment: Western blot of endogenous p73 levels in fibroblasts after cisplatin; assay type: cell-based, mouse; parameters: levels of p73 protein: dose or concentration left out as unconfirmed
Method: FIG. 1. […] These extracts were analysed by Western blotting for the expression of p73 and phosphorylated c-Jun using specific antibodies.
FIG. 2. c-Jun is necessary for cisplatin-induced p73 expression and apoptosis. […] (b) Extracts from cells described in (a) were analyzed for endogenous p73 levels by Western blotting.
Although p73 is a structural and functional homologue of the p53 tumour suppressor protein, p73 is only activated by a subset of agents that activate p53. […] The inventors have thus investigated the molecular mechanism(s) by which p73 activity is regulated. […] The increase in p73 levels in cisplatin-treated cells correlates with the phosphorylation of the proto-oncogene product, c-Jun (FIG. 1). Phosphorylated c-Jun was not detected upon gamma-irradiation of cells (FIG. 1).

[3] = tested on: p73; experiment: Egfp reporter screen for p73 activation in H1299-p53RE cells; assay type: cell-based, human; conditions: p53-null H1299 reporter cells
Excerpt: The screen utilises a p53 null cell line, H1299, which is a human lung cancer cell line. In these cells, p53 is not active as the gene is deleted. The inventors have transfected a plasmid containing the p53/p73 binding DNA sequences (or responsive element) driving the enhanced green fluorescent protein gene (Egfp) as a reporter (FIG. 8). Generally, the reporter would be turned “on” when p53 or its homologues bind to the responsive element. […] However, when the cells are exposed to compounds that activate p73, which is normally present in a dormant state in these cells, then these cells would fluoresce and would be visible as green cells under the fluorescence microscope.
It is important to note that all the cells in the population expressed Egfp, implying that the cell-system generated is homogenous and results in a 100% response.

SMILES	expression of p73 protein [1]	p73 protein induction ([2]; absence of c-Abl, cisplatin)	p73 protein induction ([2]; c-Jun-/- cells, cisplatin 25 μM, 24 hours)	p73 protein induction ([2]; jun-/-+c-Jun cells, cisplatin 25 μM, 24 hours)	levels of p73 protein ([2]; wild-type mouse embryonic fibroblasts, cisplatin (FIG. 1), 24 hours post-treatment)	response of the cell population (cells expressing Egfp) ([3]; cisplatin treated) [%]	expression of Egfp (endogenous p73 activity) ([3]; flow cytometer)
CCCC[C@@H](C=O)NC(=O)[C@H](CC(C)C)NC(=O)[C@H](CC(C)C)NC(C)=O [ALLN] (Ac-Leu-Leu-[Nle]-aldehyde)	did not result in the increased expression of p73 protein						
N.N.[Cl][Pt][Cl] [cisplatin]		severely compromised	abrogated the induction of p73	induced significantly	increase in the levels of p73 protein	100	expression of Egfp in all the cells
